The subject of this assay is L1210 leukemia ip in BDF1 mice, survival T/C. Nature of the assay: NCI In Vivo Anticancer Drug Screen. Data for tumor model L1210 Leukemia (intraperitoneal) in B6D2F1 (BDF1) mice. Conditions: endpoint: mean survival time, higher = longer survival. Put shortly: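 Mice bearing the transplanted tumor received compound or vehicle. Survival of the treated group was divided by that of the vehicle-treated control group to give the ratio.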

Setting [1] is: dose: 100.0 mg/kg/injection, schedule: Q04DX003 (ip), vehicle: saline with Tween-80.
Setting [2] is: dose: 200.0 mg/kg/injection, schedule: Q04DX003 (ip), vehicle: saline with Tween-80.
Where [3] appears, read: dose: 400.0 mg/kg/injection, schedule: Q04DX003 (ip), vehicle: saline with Tween-80.
[4] abbreviates: dose: 100.0 mg/kg/injection, schedule: Q01DX009 (ip), vehicle: saline with Tween-80.
[5] abbreviates: dose: 100.0 mg/kg/injection, schedule: Q01DX001 (ip), vehicle: Klucel (hydroxypropylcellulose) (HPC).
The mark [6] stands for this setting: dose: 200.0 mg/kg/injection, schedule: Q01DX001 (ip), vehicle: Klucel (hydroxypropylcellulose) (HPC).
Where [7] appears, read: dose: 100.0 mg/kg/injection, schedule: Q01DX009 (ip), vehicle: Klucel (hydroxypropylcellulose) (HPC).
Where [8] appears, read: dose: 100.0 mg/kg/injection, schedule: Q04DX003 (ip), vehicle: Klucel (hydroxypropylcellulose) (HPC).
[9] abbreviates: dose: 200.0 mg/kg/injection, schedule: Q01DX009 (ip), vehicle: Klucel (hydroxypropylcellulose) (HPC).
[10] abbreviates: dose: 200.0 mg/kg/injection, schedule: Q04DX003 (ip), vehicle: Klucel (hydroxypropylcellulose) (HPC).
Where [11] appears, read: dose: 50.0 mg/kg/injection, schedule: Q01DX001 (ip), vehicle: carboxymethylcellulose (CMC).
The mark [12] stands for this setting: dose: 100.0 mg/kg/injection, schedule: Q01DX001 (ip), vehicle: carboxymethylcellulose (CMC).
[13] abbreviates: dose: 200.0 mg/kg/injection, schedule: Q01DX001 (ip), vehicle: carboxymethylcellulose (CMC).
[14] abbreviates: dose: 400.0 mg/kg/injection, schedule: Q01DX001 (ip), vehicle: carboxymethylcellulose (CMC).

Inconclusive results and toxic doses are left out.

As to `Cc1c(NC(=O)Nc2ccc(C3=NCCN3)cc2)cccc1NC(=O)Nc1ccc(C2=NCCN2)cc1`, the T/C reads like this: (dose: 0.62 mg/kg/injection, schedule: Q01DX Z (ip), vehicle: carboxymethylcellulose (CMC)) 92 % of control; (dose: 1.25 mg/kg/injection, schedule: Q01DX Z (ip), vehicle: carboxymethylcellulose (CMC)) 98 % of control; (dose: 2.5 mg/kg/injection, schedule: Q01DX Z (ip), vehicle: carboxymethylcellulose (CMC)) 102 % of control; (dose: 8.5 mg/kg/injection, schedule: Q01DX Z (oral), vehicle: carboxymethylcellulose (CMC)) 109 % of control; (dose: 9.0 mg/kg/injection, schedule: Q01DX Z (ip), vehicle: water) 205 % of control; (dose: 13.5 mg/kg/injection, schedule: Q01DX Z (oral), vehicle: carboxymethylcellulose (CMC)) 121 % of control. In addition, the T/C was 160 % of control (dose: 18.0 mg/kg/injection, schedule: Q01DX Z (ip), vehicle: water); 111 % of control (dose: 20.0 mg/kg/injection, schedule: Q01DX Z (oral), vehicle: carboxymethylcellulose (CMC)); 109 % of control (dose: 30.0 mg/kg/injection, schedule: Q01DX Z (oral), vehicle: carboxymethylcellulose (CMC)); 111 % of control (dose: 36.0 mg/kg/injection, schedule: Q01DX Z (ip), vehicle: water); 114 % of control (dose: 45.0 mg/kg/injection, schedule: Q01DX Z (oral), vehicle: carboxymethylcellulose (CMC)); 124 % of control (dose: 62.0 mg/kg/injection, schedule: Q01DX Z (ip), vehicle: saline). Under “dose: 125.0 mg/kg/injection, schedule: Q01DX Z (ip), vehicle: saline”, the T/C is 96 % of control.

On to `O=S(=O)(N/N=C/c1cc(Cl)ccc1O)c1cc(Cl)c(Cl)cc1Cl`, for which the T/C (dose: 5.0 mg/kg/injection, schedule: Q01DX Z (ip), vehicle: other) is 107 % of control; the T/C (dose: 10.0 mg/kg/injection, schedule: Q01DX Z (ip), vehicle: other) was 110 % of control; the T/C (dose: 20.0 mg/kg/injection, schedule: Q01DX Z (ip), vehicle: other) was 105 % of control.

Consider `OC(c1ccccc1)(c1ccccc1)c1cccs1`, for which the T/C is 94 % of control under setting [1], 94 % of control under setting [2] and 91 % of control under setting [3].

Turning to `O=C(O)C1Cc2nc[nH]c2CN1CO` (stereo not given), the T/C reads like this: (dose: 12.5 mg/kg/injection, schedule: Q01DX009 (ip), vehicle: saline with Tween-80) 122 % of control; (dose: 25.0 mg/kg/injection, schedule: Q01DX009 (ip), vehicle: saline with Tween-80) 113 % of control; under setting [4], 263 % of control.

On to `CCCCCCCCN=[N+](C)[O-]`, for which the T/C runs as follows: (dose: 100.0 mg/kg/injection, schedule: Q04DX002 (ip), vehicle: Klucel (hydroxypropylcellulose) (HPC)) 97 % of control; (dose: 200.0 mg/kg/injection, schedule: Q04DX002 (ip), vehicle: Klucel (hydroxypropylcellulose) (HPC)) 93 % of control.

Consider `c1ccc2cc(C3OCC4(CC4)CO3)ccc2c1`, for which the T/C (dose: 50.0 mg/kg/injection, schedule: Q01DX001 (ip), vehicle: Klucel (hydroxypropylcellulose) (HPC)) is 109 % of control; the T/C under setting [5] is 102 % of control; the T/C under setting [6] was 100 % of control.

For the molecule `CC12CCC3C(CC(=O)C45OC4C(O)CCC35C)C1CCC2=O` (stereo not given), the T/C reads like this: (dose: 100.0 mg/kg/injection, schedule: Q01DX001 (sc), vehicle: steriod suspending solution) 114 % of control; (dose: 200.0 mg/kg/injection, schedule: Q01DX001 (sc), vehicle: steriod suspending solution) 114 % of control; (dose: 400.0 mg/kg/injection, schedule: Q01DX001 (sc), vehicle: steriod suspending solution) 121 % of control.

Regarding `CCOC(=O)C(C(=O)OCC)c1cc(NC(=O)c2ccccc2)ccc1NC(=O)c1ccccc1`, the T/C reads like this: under setting [1], 98 % of control; under setting [2], 95 % of control; under setting [3], 95 % of control.

On to `CN(C(=O)c1ccc(C(=N)N)cc1)c1ccccc1`, for which the T/C reads like this: (dose: 100.0 mg/kg/injection, schedule: Q01DX001 (ip), vehicle: saline with Tween-80) 100 % of control; (dose: 200.0 mg/kg/injection, schedule: Q01DX001 (ip), vehicle: saline with Tween-80) 100 % of control.

As for `CN(C)C=NC1c2ccccc2CCc2ccccc21`, the T/C runs as follows: under setting [7], 98 % of control; under setting [8], 104 % of control; under setting [9], 97 % of control; under setting [10], 91 % of control; (dose: 400.0 mg/kg/injection, schedule: Q01DX009 (ip), vehicle: Klucel (hydroxypropylcellulose) (HPC)) 100 % of control; (dose: 400.0 mg/kg/injection, schedule: Q04DX003 (ip), vehicle: Klucel (hydroxypropylcellulose) (HPC)) 94 % of control.

As to `C=CCOP(=O)(OCC=C)OCC=C`, the T/C by setting is: (dose: 50.0 mg/kg/injection, schedule: Q01DX009 (ip), vehicle: Klucel (hydroxypropylcellulose) (HPC)) 97 % of control; (dose: 50.0 mg/kg/injection, schedule: Q04DX003 (ip), vehicle: Klucel (hydroxypropylcellulose) (HPC)) 99 % of control; under setting [7], 97 % of control; under setting [8], 91 % of control; under setting [9], 98 % of control; under setting [10], 93 % of control.

For `CCN(CC)Cc1ccc(N)cc1`, the T/C (dose: 12.5 mg/kg/injection, schedule: Q01DX009 (ip), vehicle: saline) is 100 % of control and the T/C (dose: 25.0 mg/kg/injection, schedule: Q01DX009 (ip), vehicle: saline) is 110 % of control.

On to `NC1=NC(c2ccccc2)C2=C(N1)C(=O)N(Cc1ccccc1)C2` (stereo not given), for which the T/C runs as follows: under setting [11], 98 % of control; under setting [12], 101 % of control; under setting [13], 98 % of control; under setting [14], 95 % of control.

Consider `O=C(O)C(CO)c1ccc(F)cc1` (stereo not given), for which the T/C runs as follows: under setting [12], 108 % of control; under setting [13], 106 % of control; under setting [14], 108 % of control.

Turning to `CCOC(=O)C1=C(C)NC(=O)NC1c1ccc(N=Cc2cc(Br)ccc2O)cc1` (stereo not given), the T/C is, setting by setting: under setting [1], 97 % of control; under setting [2], 97 % of control; under setting [3], 89 % of control.

Take `O=C1NC2(CCCCC2)C(=O)N1CCN(CCO)CCO`: the T/C was 106 % of control (dose: 50.0 mg/kg/injection, schedule: Q01DX009 (ip), vehicle: saline); 109 % of control (dose: 100.0 mg/kg/injection, schedule: Q01DX009 (ip), vehicle: saline); 93 % of control (dose: 200.0 mg/kg/injection, schedule: Q01DX009 (ip), vehicle: saline); 91 % of control (dose: 400.0 mg/kg/injection, schedule: Q01DX009 (ip), vehicle: saline).

With `CC(=O)Nc1ccc(N)c(NC(C)=O)n1`, the T/C was 97 % of control (dose: 100.0 mg/kg/injection, schedule: Q04DX003 (ip), vehicle: saline); 95 % of control (dose: 200.0 mg/kg/injection, schedule: Q04DX003 (ip), vehicle: saline); 109 % of control (dose: 400.0 mg/kg/injection, schedule: Q04DX003 (ip), vehicle: saline).

With `N#CC(=C1C=CC(=NO)C=C1)c1ccc(Cl)cc1`, the T/C runs as follows: under setting [4], 97 % of control; under setting [1], 96 % of control; (dose: 200.0 mg/kg/injection, schedule: Q01DX009 (ip), vehicle: saline with Tween-80) 100 % of control; under setting [2], 107 % of control; (dose: 400.0 mg/kg/injection, schedule: Q01DX009 (ip), vehicle: saline with Tween-80) 103 % of control; under setting [3], 91 % of control.

For `Nc1c([N+](=O)[O-])cc([N+](=O)[O-])c2ccccc12`, the T/C (dose: 15.0 mg/kg/injection, schedule: Q01DX015 (ip), vehicle: carboxymethylcellulose (CMC)) is 91 % of control; the T/C (dose: 30.0 mg/kg/injection, schedule: Q01DX015 (ip), vehicle: carboxymethylcellulose (CMC)) is 91 % of control; the T/C under setting [11] was 104 % of control; the T/C (dose: 60.0 mg/kg/injection, schedule: Q01DX015 (ip), vehicle: carboxymethylcellulose (CMC)) was 102 % of control; the T/C under setting [12] is 101 % of control; the T/C (dose: 120.0 mg/kg/injection, schedule: Q01DX015 (ip), vehicle: carboxymethylcellulose (CMC)) was 98 % of control.

On to `CN=C(NO)c1ccccc1`, for which the T/C is 107 % of control under setting [5] and 98 % of control under setting [6].

Values taken from PubChem BioAssay AID248 (DTP/NCI, 2004).
